# Results as given in publication PMC4838890, “Dynamic and flexible H3K9me3 bridging via HP1β dimerization establishes a plastic state of condensed chromatin” (Nature Communications, 2016).
# “Also recorded” adds a separate entry of the source.
# Tests used:
# [1] = system: mouse embryonic stem cells (mESC); experiment: ChIP-seq genome-wide correlation with H3K9me3; type: cell-based
# Protocol: For crosslink MNase ChIP of HP1β, 10^7 TT2 WT mouse ES cells were collected. Cells were crosslinked with 1% (v/v) formaldehyde in 10 ml of PBS for 10 min at RT, then quenched with 0.125 M glycine for 5 min. Cells were washed 1 × with PBS, and resuspended in 1 ml of EZ Nuclei Isolation Buffer (Sigma-Aldrich, Steinheim, Germany). The cytoplasmic supernatant was discarded and the pellet was flash frozen with liquid N2. […]
# A third of ChIP and input DNA (10–20 ng total) underwent end repair with T4 and Klenow, A-tailing and adaptor ligation. […] Resulting PCR was then purified on 2% EX Gel (Life Technologies, Carlsbad, USA) at the 200–700 bp range, and quantified on Qubit and Agilent Tapestation. […]
# Following published data sets were downloaded from NCBI/GEO for this study: SPR899601/ H3K9me3 SETDB1^f/− and SPR899602/H3K9me3 SETDB1^−/− both done with anti-H3K9me3 antibody (ab8898)[36]. Reads were processed and aligned to the mouse reference genome (mm9) using QuasR in R. Genomic alignment was performed twice using BOWTIE with the following parameters: --strata, --best and -m 1 or -m 99 to account for reads that map uniquely or up to 99 times in the mouse genome, respectively. For genome-wide comparisons, only uniquely mapping reads were used. Reads mapping up to 99 times were used for ERV analysis and genome browser visualization. […]
# [2] = system: H3KC9me3 oligonucleosomes; experiment: Chromatin coprecipitation, H3KC9me3 oligonucleosomes; type: binding, Xenopus laevis
# Protocol: (§1) 6.7 nM oligonucleosomes were incubated with 1 μM recombinant protein in 100 μl binding buffer (10 mM triethanolamine (pH 7.5), 150 mM NaCl, 5 mM MgCl2, 0.1 mM EDTA, 0.1% (v/v) Triton-X100) for 1 h on ice. Precipitated chromatin complexes were recovered by centrifugation at 16,100g for 30 min at 4°C. Pellets were washed once with 0.5 ml binding buffer and centrifuged for 15 min at 4 °C. Precipitated material was resuspended in 10 μl 1 × SDS loading buffer and boiled for 5 min before running on SDS–PAGE.
# (§2) Supplementary Table 1: Summary of conditions used in the different experiments of this study.
# (§3) experiment result modification template Temp. [NaCl] [MgCl2]
# (§4) chromatin Fig. 1e,f; Fig. S1f-h; H3K9me3 oligo- 4 150 5
# [3] = system: H3K9me0 and H3K9me3 chromatin; conditions: cited from earlier work
# From the text: In our model, modulation of the general chromatin-binding mode is brought about by varying sequences in the HR and NT domains as well as possibly their post-translational modification in other HP1 proteins (different variants, different species). We think that within these regions the overall charge but not a particular sequence is mainly dictating the chromatin-binding properties.
# [4] = system: DNA fragment of 150 bp; experiment: Electrophoretic mobility shift assay (EMSA); type: binding; conditions: 150 bp DNA, 0, 3, 9 μM protein, 100 mM NaCl, 5 mM MgCl2, RT
# Protocol: 50 ng 150 bp DNA amplified from the backbone of pUC18 was incubated with 0, 3, 9 μM recombinant protein in 10 μl EMSA buffer (10 mM Tris-HCl (pH 8.0), 100 mM NaCl, 5 mM MgCl2) for 20 min at room temperature (RT). 2 μl 50% (v/v) glycerol was added and samples were loaded onto 6% native PAGE gels. After electrophoresis, DNA was visualized by staining with 1 × SYBR Gold/0.25 × TBE for 20 min at RT. Images were captured using a ChemiDoc MP Imaging System (Bio-Rad, München, Germany). […]
# crosslinking Fig. S6e,f nucleosomes […]
# crosslinking Fig. S7a,b nucleosomes
# EMSA Fig. 1g; Fig. 5c; n//a RT 100 5
# 1Preincubation of oligonucleosomes and h HP1β was performed at 4 °C . Measurements wer e carried out at the in dicated te mperature.
# 2in increments o f 0 .5 mM
# 3MgCl2 was added at the end of incubation to coprecipitate oligonucleosomes a nd bound hHP1β.
# [5] = system: H3K9me3 oligonucleosomes; experiment: Chromatin coprecipitation, H3K9me3 oligonucleosomes; type: binding, Xenopus laevis; conditions: chromatin coprecipitation, 5 mM MgCl2
# Protocol: as §1, §2, §3, §4
substance,measurement,setting,value
mHP1β: endogenous mouse HP1β; sequence identical to human HP1β,H3K9me3 loss on SETDB1 deletion at mHP1β-enriched sites,"[1]; conditional SETDB1 deletion, H3K9me3 data ref [36]",the strongest loss of H3K9me3 occurred at sites enriched for mHP1β in WT cells
same,"Pearson's R, genome-wide correlation with H3K9me3","[1]; endogenous mHP1β, antibody-based ChIP-seq, 1 kb windows",0.77
Swi6: S. pombe HP1 protein,recovery with H3KC9me3 oligonucleosomes,"[2]; 6.7 nM oligonucleosomes, 1 μM protein, 150 mM NaCl, 5 mM MgCl2",specificity of Swi6 association with H3K9me0 and H3K9me3 oligonucleosomes increased significantly when the chromatin was more saturated; also recorded: recovered to a higher degree in H3K9me3 chromatin coprecipitation compared with hHP1β
same,molecules bound per nucleosome,[2]; saturating protein concentrations,approximately four
same,binding to unmodified chromatin,[3]; ref [29],more pronounced binding to unmodified chromatin
hHP1α WT: recombinant human HP1α (GenBank BC006821) [reference compound],DNA binding,[4],high level of general DNA binding
same,specificity for H3K9me3,[5],much less specificity for H3K9me3 compared with hHP1β
same,discrimination between H3K9me0 and H3K9me3 chromatin,[3]; ref [12],limited discrimination between H3K9me0 and H3K9me3 chromatin
